Source: US7563903B2, “Acylaminothiazole derivatives, their preparation and their therapeutic use” (Sanofi-Aventis, priority 2003, dated 2009)
“And” between values parts separate entries of the source, which are not always exact repeats. Equal entries are not always repeated.

Row | melting point | SMILES
1 | 81.5 °C | CCC[C@H](NC(=O)[C@@H](O)C(C)(C)C)C(=O)Nc1ncc(-c2ccccc2COc2ccc(OC)c(OC)c2)s1 [compound 30, (2S)—N-(5-{2-[(3,4-dimethoxyphenoxy)methyl]phenyl}-1,3-thiazol-2-yl)-2-{[(2S)-2-hydroxy-3,3-dimethylbutanoyl]amino}pentanamide]
2 | 69.5 °C | CCC[C@H](NC(=O)[C@@H](O)C(C)(C)C)C(=O)Nc1ncc(-c2ccccc2COc2c(OC)cccc2OC)s1 [compound 31, (2S)—N-(5-{2-[(2,6-dimethoxyphenoxy)methyl]phenyl}-1,3-thiazol-2-yl)-2-{[(2S)-2-hydroxy-3,3-dimethylbutanoyl]amino}pentanamide]
3 | 86 °C | CCC[C@H](NC(=O)[C@@H](O)C(C)(C)C)C(=O)Nc1ncc(-c2ccccc2COc2ccc(C)cc2C)s1 [compound 32, (2S)—N-(5-{2-[(2,4-dimethylphenoxy)methyl]phenyl}-1,3-thiazol-2-yl)-2-{[(2S)-2-hydroxy-3,3-dimethylbutanoyl]amino}pentanamide]
4 | 87 °C | CCC[C@H](NC(=O)[C@@H](O)C(C)(C)C)C(=O)Nc1ncc(-c2ccccc2COc2cc(C)ccc2C)s1 [compound 33, (2S)—N-(5-{2-[(2,5-dimethylphenoxy)methyl]phenyl}-1,3-thiazol-2-yl)-2{[(2S)-2-hydroxy-3,3-dimethylbutanoyl]amino}pentanamide]
5 | 99 °C | CCC[C@H](NC(=O)[C@@H](O)C(C)(C)C)C(=O)Nc1nc(C)c(-c2ccccc2COc2ccccc2)s1 [compound 34, (2S)-2-{[(2S)-2-hydroxy-3,3-dimethylbutanoyl]amino}-N-{4-methyl-5-[2-(phenoxymethyl)phenyl]-1,3-thiazol-2-yl}pentanamide]
6 | 78.5 °C | CCC[C@@H](NC(=O)[C@@H](O)C(C)(C)C)C(=O)Nc1ncc(-c2ccccc2COc2ccccc2)s1 [compound 35, (2R)-2-{[(2S)-2-hydroxy-3,3-dimethylbutanoyl]amino}-N-{5-[2-(phenoxymethyl)phenyl]-1,3-thiazol-2-yl}pentanamide]
7 | 96.5 °C | CCC[C@H](NC(=O)[C@@H](O)C(C)(C)C)C(=O)Nc1ncc(-c2ccccc2COc2ccccc2C)s1 [compound 36, (2S)-2-{[(2S)-2-hydroxy-3,3-dimethylbutanoyl]amino}-N-(5-{2-[(2-methylphenoxy)methyl]phenyl}-1,3-thiazol-2-yl}pentanamide]
8 | 141 °C | CCC[C@H](NC(=O)[C@@H](O)C(C)C)C(=O)Nc1ncc(-c2ccccc2COc2ccccc2)s1 [compound 37, (2S)-2-{[(2S)-2-hydroxy-3-methylbutanoyl]amino}-N-{5-[2-(phenoxymethyl)phenyl]-1,3-thiazol-2-yl}pentanamide]
9 | 85 °C | CCC[C@H](NC(=O)C(O)C(C)(C)C)C(=O)Nc1ncc(-c2ccccc2COc2ccccc2OC)s1 (stereo partly drawn) [compound 38, (2S)-2-[(2-hydroxy-3,3-dimethylbutanoyl)amino]-N-(5-{2-[(2-methoxyphenoxy)methyl]phenyl}-1,3-thiazol-2-yl}pentanamide]
10 | 88 °C | CCC[C@H](NC(=O)C(O)C(C)(C)C)C(=O)Nc1ncc(-c2ccccc2COc2ccccc2OCC)s1 (stereo partly drawn) [compound 39, (2S)—N-(5-{2-[(2-ethoxyphenoxy)methyl]phenyl}-1,3-thiazol-2-yl)-2-[(2-hydroxy-3,3-dimethylbutanoyl)amino]pentanamide]

The remaining lines, values behind:

Row | SMILES | melting point
11 | CCC[C@H](NC(=O)[C@H](O)C(CC)CC)C(=O)Nc1ncc(-c2ccccc2COc2ccccc2)s1 (racemic) [Compound No. 42, (2R)-3-ethyl-2-hydroxy-N-{(1S)-1-[({5-[2-(phenoxymethyl)phenyl]-1,3-thiazol-2-yl}amino)carbonyl]butyl}pentanamide] | 67.4 °C and 67.5 °C
12 | CCC[C@H](NC(=O)C(O)CC(C)C)C(=O)Nc1ncc(-c2ccccc2COC2CCCCC2)s1 (stereo partly drawn) [Compound No. 4, N-((1S)-1-{[(5-{2-[(cyclohexyloxy)methyl]phenyl}-1,3-thiazol-2-yl)amino]carbonyl}butyl)-2-hydroxy-4-methylpentanamide] | 85 °C
13 | CCC[C@H](NC(=O)[C@@H](O)C(C)(C)C)C(=O)Nc1ncc(-c2ccccc2COc2ccccc2)s1 [Compound No. 9, (2S)-2-{[(2S)-2-hydroxy-3,3-dimethylbutanoyl]amino}-N-{5-[2-(phenoxymethyl)phenyl]-1,3-thiazol-2-yl}pentanamide] | 84 °C
14 | CCC[C@H](NC(=O)[C@@H](O)C(CC)CC)C(=O)Nc1ncc(-c2ccccc2COc2ccccc2)s1 [Compound No. 43, (2S)-3-ethyl-2-hydroxy-N-{(1S)-1-[({5-[2-(phenoxymethyl)phenyl]-1,3-thiazol-2-yl}amino)carbonyl]butyl}pentanamide] | 122.5 °C
15 | CCC[C@H](NC(=O)[C@@H](O)C(C)(C)C)C(=O)Nc1ncc(-c2ccccc2COc2ccncc2)s1 [Compound No. 70, (2S)-2-{[(2S)-2-hydroxy-3,3-dimethylbutanoyl]amino}-N-(5-{2-[(4-pyridinyloxy)methyl]phenyl}-1,3-thiazol-2-yl)pentanamide] | 112.7 °C
16 | CCC[C@H](NC(=O)[C@@H](O)C(C)(C)C)C(=O)Nc1ncc(-c2ccccc2COC(C)C)s1 [compound 11, (2S)-2-{[(2S)-2-hydroxy-3,3-dimethylbutanoyl]amino}-N-{5-[2-(isopropoxymethyl)phenyl]-1,3-thiazol-2-yl}pentanamide] | 63 °C
17 | CCC[C@H](NC(=O)CC(C)(C)C)C(=O)Nc1ncc(-c2ccccc2COC(C)C)s1 [compound 13, (2S)-2-[(3,3-dimethylbutanoyl)amino]-N-{5-[2-(isopropoxymethyl)phenyl]-1,3-thiazol-2-yl}pentanamide] | 77 °C
18 | CCC[C@H](NC(=O)C(=O)C(C)CC)C(=O)Nc1ncc(-c2ccccc2COC(C)C)s1 (stereo partly drawn) [compound 14, N-{(1S)-1-[({5-[2-(isopropoxymethyl)phenyl]-1,3-thiazol-2-yl}amino)carbonyl]butyl}-3-methyl-2-oxopentanamide] | 112 °C
19 | CCC[C@H](NC(=O)[C@@H](O)C(C)(C)C)C(=O)Nc1ncc(-c2ccccc2COCC)s1 [compound 15, (2S)—N-{5-[2-(ethoxymethyl)phenyl]-1,3-thiazol-2-yl}-2-{[(2S)-2-hydroxy-3,3-dimethylbutanoyl]amino}pentanamide] | 148 °C
20 | CCC[C@H](NC(=O)[C@@H](O)C(C)(C)C)C(=O)Nc1ncc(-c2ccccc2COc2cccc(OC(F)(F)F)c2)s1 [compound 17, (2S)-2-{[(2S)-2-hydroxy-3,3-dimethylbutanoyl]amino}-N-[5-(2-{[3-(trifluoromethoxy)phenoxy]methyl}phenyl)-1,3-thiazol-2-yl]pentanamide] | 114 °C
21 | CCC[C@H](NC(=O)[C@@H](O)C(C)(C)C)C(=O)Nc1ncc(-c2ccc(OC)cc2COc2ccccc2)s1 [compound 18, (2S)-2-{[(2S)-2-hydroxy-3,3-dimethylbutanoyl]amino}-N-{5-[4-methoxy-2-(phenoxymethyl)phenyl]-1,3-thiazol-2-yl}pentanamide] | 117 °C
22 | CCC[C@H](NC(=O)[C@@H](O)C(C)(C)C)C(=O)Nc1ncc(-c2ccccc2COc2ccccc2F)s1 [compound 19, (2S)—N-(5-{2-[(2-fluorophenoxy)methyl]phenyl}-1,3-thiazol-2-yl)-2-{[(2S)-2-hydroxy-3,3-dimethylbutanoyl]amino}pentanamide] | 92 °C
23 | CCC[C@H](NC(=O)[C@@H](O)C(C)(C)C)C(=O)Nc1ncc(-c2ccccc2COc2ccccc2CC)s1 [compound 20, (2S)—N-(5-{2-[(2-ethylphenoxy)methyl]phenyl}-1,3-thiazol-2-yl)-2-{[(2S)-2-hydroxy-3,3-dimethylbutanoyl]amino}pentanamide] | 107 °C
24 | CCC[C@H](NC(=O)[C@@H](O)C(C)(C)C)C(=O)Nc1ncc(-c2ccccc2COc2cccc(OC)c2OC)s1 [compound 23, (2S)—N-(5-{2-[(2,3-dimethoxyphenoxy)methyl]-phenyl}-1,3-thiazol-2-yl)-2-{[(2S)-2-hydroxy-3,3-dimethylbutanoyl]amino}pentanamide] | 99 °C
25 | CCC[C@H](NC(=O)[C@@H](O)C(C)(C)C)C(=O)Nc1ncc(-c2ccccc2COc2ccccc2OC(F)(F)F)s1 [compound 24, (2S)-2-{[(2S)-2-hydroxy-3,3-dimethylbutanoyl]amino}-N-[5-(2-{[2-(trifluoromethoxy)phenoxy]methyl}phenyl)-1,3-thiazol-2-yl]pentanamide] | 66 °C
26 | CCC[C@H](NC(=O)[C@@H](O)C(C)(C)C)C(=O)Nc1ncc(-c2ccccc2COc2cc(OC)cc(OC)c2)s1 [compound 25, (2S)—N-(5-{2-[(3,5-dimethoxyphenoxy)methyl]-phenyl}-1,3-thiazol-2-yl)-2-{[(2S)-2-hydroxy-3,3-dimethylbutanoyl]amino}pentanamide] | 66.5 °C
27 | CCC[C@H](NC(=O)[C@@H](O)C(C)(C)C)C(=O)Nc1ncc(-c2ccccc2COc2cccc(C)c2C)s1 [compound 26, (2S)—N-(5-{2-[(2,3-dimethylphenoxy)methyl]phenyl}-1,3-thiazol-2-yl)-2-{[(2S)-2-hydroxy-3,3-dimethylbutanoyl]amino}pentanamide] | 88 °C
28 | CCC[C@H](NC(=O)[C@@H](O)C(C)(C)C)C(=O)Nc1ncc(-c2ccccc2COc2ccc(C)c(C)c2)s1 [compound 27, (2S)—N-(5-{2-[(3,4-dimethylphenoxy)methyl]phenyl}-1,3-thiazol-2-yl)-2-{[(2S)-2-hydroxy-3,3-dimethylbutanoyl]amino}pentanamide] | 89 °C
29 | CCC[C@H](NC(=O)[C@@H](O)C(C)(C)C)C(=O)Nc1ncc(-c2ccccc2COc2c(C)cccc2C)s1 [compound 28, (2S)—N-(5-{2-[(2,6-dimethylphenoxy)methyl]phenyl}-1,3-thiazol-2-yl)-2-{[(2S)-2-hydroxy-3,3-dimethylbutanoyl]amino}pentanamide] | 87 °C
30 | CCC[C@H](NC(=O)[C@@H](O)C(C)(C)C)C(=O)Nc1ncc(-c2ccccc2COc2cccc(Cl)c2)s1 [compound 29, (2S)—N-(5-{2-[(3-chlorophenoxy)methyl]phenyl}-1,3-thiazol-2-yl)-2-{[(2S)-2-hydroxy-3,3-dimethylbutanoyl]amino}pentanamide] | 169 °C
